Results reported in publication PMC12017303 (Science Advances, 2025).
In brackets after ≈: the same amount, converted by molar mass.

How the values were obtained:
[1] = tested on: MERS-CoV EMC; assay: microbe, parasite or virus in culture; type: cell-based; design: SI50 / SI90: unit not given beside the values
[2] = tested on: SARS-CoV Urbani; assay: microbe, parasite or virus in culture; type: cell-based; design: SI90 / SI50: unit not given beside the values
[3] = biological target: SARS-CoV-2 M^Pro (Cys^145) (Severe acute respiratory syndrome coronavirus 2, UniProt P0DTD1); type: binding
[4] = in vitro; conditions: plasma
[5] = tested on: human cytochrome P450 (CYP) isoforms
[6] = biological target: SARS-CoV-1 M^Pro (Severe acute respiratory syndrome coronavirus, UniProt P0C6X7); assay: biochemical
[7] = physchem; conditions: pH 7.4, aqueous buffer, kinetic from dmso stock
[8] = male, CD-1, mouse, in vivo
[9] = tested on: SARS-CoV-2 BA.2.86.1 replicon in Vero ACE2 TMPRSS2; assay: microbe, parasite or virus in culture; type: cell-based; conditions: Severe acute respiratory syndrome coronavirus 2, Vero, read-out: Replicon replication in Vero ACE2 TMPRSS2 EC50: BA.2.86.1
[10] = tested on: SARS-CoV-2 WA.1 (icSARS-CoV-2-mNG) in A549-ACE2^h; assay: microbe, parasite or virus in culture; type: cell-based; conditions: Severe acute respiratory syndrome coronavirus 2, read-out: Viral replication in A549-ACE2^h EC50: WA.1
[11] = in vitro; conditions: human, microsomes, pH 7.4
[12] = tested on: SARS-CoV-2 WA.1 replicon in Vero ACE2 TMPRSS2; assay: microbe, parasite or virus in culture; type: cell-based; conditions: Severe acute respiratory syndrome coronavirus 2, Vero, read-out: Replicon replication in Vero ACE2 TMPRSS2 EC50: WA.1
[13] = in vivo; conditions: mouse
[14] = tested on: P-gp (MDR1); assay: in vitro; conditions: dog
[15] = biological target: T1, SARS-CoV-2 M^Pro (Severe acute respiratory syndrome coronavirus 2, UniProt P0DTD1); type: biochemical
[16] = in vivo; conditions: male, CD-1, mouse; for AUC(0-t): AUClast
[17] = biological target: CYP2C8 (Homo sapiens, UniProt P10632); conditions: 10 μM
[18] = in vitro; conditions: mouse, microsomes, pH 7.4
[19] = in vivo
[20] = biological target: T1, SARS-CoV-2 M^Pro; assay: biochemical
[21] = biological target: T1, SARS-CoV-2 M^Pro; assay: biochemical; remark: listed apart in the source
[22] = in vitro; conditions: PAMPA, pH 7.4
[23] = in vitro; conditions: human
[24] = tested on: SARS-CoV-2 BA.2 (omicron); assay: microbe, parasite or virus in culture; type: cell-based; design: SI50 / SI90: unit not given beside the values
[25] = tested on: Huh7
[26] = tested on: HCoV Alpha 229E; assay: organism not typed; type: cell-based, HCoV 229E; design: SI50 / SI90: unit not given beside the values
[27] = tested on: SARS-CoV-2 B.1.617.2 (delta); type: cell-based; design: SI50 / SI90: unit not given beside the values
[28] = tested on: HCoV Beta OC43; assay: microbe, parasite or virus in culture; type: cell-based; design: SI90 / SI50: unit not given beside the values
[29] = tested on: Rhabdomyosarcoma
[30] = Middle East respiratory syndrome-related coronavirus, Vero C1008
[31] = Severe acute respiratory syndrome coronavirus, Vero C1008
[32] = pH 7.4, plasma protein binding (PPB)

Sequence of CYP2C8 (P10632 whole entry): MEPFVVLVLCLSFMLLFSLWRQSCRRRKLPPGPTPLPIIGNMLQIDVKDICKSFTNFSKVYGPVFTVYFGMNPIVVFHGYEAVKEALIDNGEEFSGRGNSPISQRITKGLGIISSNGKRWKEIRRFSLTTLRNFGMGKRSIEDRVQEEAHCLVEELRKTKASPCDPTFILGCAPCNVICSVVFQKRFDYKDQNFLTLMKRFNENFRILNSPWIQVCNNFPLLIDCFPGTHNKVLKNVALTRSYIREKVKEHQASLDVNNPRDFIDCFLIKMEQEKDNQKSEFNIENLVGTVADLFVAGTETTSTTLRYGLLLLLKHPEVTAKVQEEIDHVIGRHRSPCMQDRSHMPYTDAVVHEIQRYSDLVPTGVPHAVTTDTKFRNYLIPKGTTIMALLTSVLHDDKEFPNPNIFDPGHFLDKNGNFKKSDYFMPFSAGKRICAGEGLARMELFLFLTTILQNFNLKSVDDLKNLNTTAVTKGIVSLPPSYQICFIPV

CCC(CC)COC(=O)[C@H](C)N[P@](=O)(OC[C@H]1O[C@@](C#N)(c2ccc3c(N)ncnn23)[C@H](O)[C@@H]1O)Oc1ccccc1 [remdesivir, reference compound]
SI50 [1]: 540
SI90 [1]: 51
EC50 [1, 30]: 3.7 nM
EC90 [1, 30]: 39 nM
SI50 [2]: > 83
SI90 [2]: > 71
EC50 [2, 31]: 120 nM
EC90 [2, 31]: 140 nM

C#CCn1c(C)c(-n2nnc3cc(F)c(F)cc32)c(=O)n(-c2cncc3ccccc23)c1=O [AVI-4773]
covalent adduct by whole protein MS [3]: mass shifts consistent with modification at a single site
fraction unbound ([4]; pH 7.4, PPB): 0.19
fraction unbound [4, 32]: 0.17
inhibition across the CYP panel ([5]; human, pH 7.4): ≤ 25%
IC50 [6]: 95 nM
solubility [7]: 431 µM (≈ 192 µg/mL)
Mouse F [8]: 110
free concentration in plasma [8]: 4.045 µM
AUClast ([8]; po, 50 mg/kg): 94700 ng·h/mL
Plasma T½ ([8]; po, 50 mg/kg): 13 h
EC50 [9]: 49 nM
EC50 [10]: 19 nM
half-life [11]: > 2 h
EC50 [12]: 60 nM
Kp [13]: ~0.08
Papp B→A ([14]; MDCK-MDR1): 70.8 ×10⁻⁶ cm/s
Papp A→B ([14]; MDCK-MDR1, MDCK AB): 17.8 ×10⁻⁶ cm/s
M^Pro activity after dialysis [15]: activity was not regained
bioavailability ([16]; F): 110%
MRT inf ([16]; iv, 10 mg/kg): 2.06 h
clearance ([16]; iv, 10 mg/kg): 9.57 mL/min/kg
half-life ([16]; iv, 10 mg/kg): 1.22 h
AUC(0-inf) ([16]; iv, 10 mg/kg, AUCINF): 17400 ng·h/mL
AUC(0-t) ([16]; iv, 10 mg/kg): 17200 ng·h/mL
Vd ([16]; iv, 10 mg/kg, Vss): 1.18 L/kg
bioavailability ([16]; oral bioavailability (%F)): > 100%
half-life ([16]; po, 50 mg/kg): 13 h
AUC(0-inf) ([16]; po, 50 mg/kg, AUCINF): 273000 ng·h/mL
AUC(0-inf) ([16]; po, 50 mg/kg, AUCinf): 272000 ng·h/mL
AUC(0-t) ([16]; po, 50 mg/kg): 94700 ng·h/mL
Cmax ([16]; po, 50 mg/kg, CMax): 14900 ng/mL
Cmax ([16]; po, 50 mg/kg, Cmax): 14900 ng/mL
Tmax ([16]; po, 50 mg/kg, TMax): 0.5 h
Tmax ([16]; po, 50 mg/kg, Tmax): 0.5 h
CYP2C8 inhibition [17]: ~ 45%
half-life [18]: > 2 h
exposure in BALF ([19]; mouse, po): ~ 4400 nM

C#CCn1c(-c2cccc(Cl)c2)c(-n2nnc3ccccc32)c(=O)n(-c2cncc3ccccc23)c1=O [AVI-4692]
covalent adduct by whole protein MS [3]: mass shifts consistent with modification at a single site
fraction unbound [4, 32]: < 0.01
CYP inhibition, result in words ([5]; 10 μM): somewhat more potent inhibitor of both CYP2C8 and CYP3A4
IC50 [6]: 120 nM
IC50 [20]: 37 nM
EC50 [9]: 27 nM
EC50 [10]: 6.8 nM
half-life [11]: > 2 h
EC50 [12]: 26 nM
M^Pro activity after dialysis [15]: activity was not regained
kinact/KI [21]: 27000 M⁻¹ s⁻¹
half-life [18]: > 2 h
Papp [22]: 31.8 ×10⁻⁶ cm/s

O=C1CCN(Cc2csc(Cl)c2)C(=O)N1c1cncc2ccccc12 [AVI-3778]
IC50 [20]: 850 nM
M^Pro inhibition, result in words [20]: submicromolar potencies
CC50 [23]: > 100000 nM
viability at 100 µM [23]: 95.7%
Papp [22]: 26.4 ×10⁻⁶ cm/s

O=c1[nH]c(-c2cccc(Cl)c2)c(-n2nnc3ccccc32)c(=O)n1-c1cncc2ccccc12 [AVI-4303]
IC50 [20]: 300 nM
CC50 [23]: > 100000 nM
viability at 100 µM [23]: 92.3%
Papp [22]: 6.6 ×10⁻⁶ cm/s

O=C1CCN(Cc2csc(Cl)c2)C(=O)N1Cc1ccc[nH]c1=O [AVI-3570]
IC50 [20]: 1500 nM
CC50 [23]: > 100000 nM
viability at 100 µM [23]: 100%

O=C1CCN(Cc2ccsc2)C(=O)N1Cc1ccc[nH]c1=O [AVI-3320]
IC50 [20]: 23000 nM
CC50 [23]: > 100000 nM
viability at 100 µM [23]: 100%

O=c1cc(-c2cccc(Cl)c2)[nH]c(=O)n1-c1cncc2ccccc12 [AVI-4301]
IC50 [20]: 6400 nM
CC50 [23]: > 100000 nM
viability at 100 µM [23]: 100%
Papp [22]: 31.8 ×10⁻⁶ cm/s

O=C1CCN(Cc2cccc(Cl)c2)C(=O)N1c1cncc2ccccc12 [AVI-3779]
IC50 [20]: 660 nM
M^Pro inhibition, result in words [20]: submicromolar potencies
CC50 [23]: > 100000 nM
viability at 100 µM [23]: 100%
Papp [22]: 23.9 ×10⁻⁶ cm/s

O=C1CCN(Cc2cccc(Cl)c2)C(=O)N1Cc1ccc[nH]c1=O [AVI-3993]
IC50 [20]: 8500 nM

O=c1nc(NO)ccn1[C@@H]1O[C@H](CO)[C@@H](O)[C@H]1O [EIDD-1931, reference compound]
SI50 [24]: 810
SI90 [24]: 1000
EC50 ([24]; read-out: EC50): 53 nM
EC90 ([24]; read-out: EC90): 43 nM
CC50 [25]: > 10000 nM
SI50 [26]: > 23
SI90 [26]: > 27
EC50 ([26]; read-out: EC50): 440 nM
EC90 ([26]; read-out: EC90): 370 nM
EC50 [27]: 170 nM
EC90 [27]: 50 nM
SI50 [27]: 210
SI90 [27]: 720
SI50 [28]: 170
SI90 [28]: 190
EC50 ([28]; read-out: EC50): 35 nM
EC90 ([28]; read-out: EC90): 32 nM
CC50 [29]: 6100 nM

O=C1CCN(Cc2cccc(F)c2)C(=O)N1c1cncc2ccccc12 [AVI-3780]
IC50 [20]: 800 nM
M^Pro inhibition, result in words [20]: submicromolar potencies
CC50 [23]: > 100000 nM
viability at 100 µM [23]: 100%
Papp [22]: 19.6 ×10⁻⁶ cm/s

Cn1cnc(Cn2c(=O)[nH]/c(=N\c3cc4cn(C)nc4cc3Cl)n(Cc3cc(F)c(F)cc3F)c2=O)n1 [ensitrelvir, reference compound]
Brain, Mean ([19]; CD1, mouse): 47.9 ng/g

O=C1CCN(Cc2cc(Cl)cs2)C(=O)N1Cc1ccc[nH]c1=O [AVI-3318]
IC50 [20]: 4600 nM
CC50 [23]: > 100000 nM
viability at 100 µM [23]: 88.9%

O=C1CCN(Cc2cccs2)C(=O)N1Cc1ccc[nH]c1=O [AVI-1084]
CC50 [23]: > 100000 nM
viability at 100 µM [23]: 100%
